{"source": "patent US8603737B2", "about": "“Methods for identifying HCV protease inhibitors” (priority 2008, dated 2013)", "key": {"[1]": {"biological_target": "T1, NS3 protease self-cleavage in Huh-7-Luc-Neo-ET cells (Hepatitis C virus genotype 1b, UniProt Q9WMX2, E1202G/T1280I)", "T1 construct": "host or cells: Huh-7-Luc-Neo-ET replicon cells (human hepatoma Huh7)", "format": "cell-based, HCV", "settings": "wild type replicon cells", "protocol": "Inhibition of Protease Self Cleavage\nThe remaining wells were rinsed 2× with PBS then fed with Replicon Media and returned to the incubator.\n(§1) Cell lysates were separated by SDS-Page (4-20%) and transferred to Immobilon-P PVDF membrane (Millipore Corporation, MA) and blotted with polyclonal anti NS3 antibody (Bioenza, Calif.). Blots were scanned on an Odyssey infrared scanner from Licor and the FL band and cleavage products were quantified separately using the Licor software provided with the scanner. The cleavage product was calculated as a percentage of the total NS3 in each sample and then normalized to the DMSO control so that the DMSO control reflects 100% activity."}, "[2]": {"system": "HCV NS3/4A genotypes 1a, 1b, 2a, and 3a", "assay": "Mass spectrometric analysis of covalent modification, NS3/4A genotypes", "format": "binding", "settings": "3 hours reaction, each genotype 1a, 10-fold excess of compound", "protocol": "Mass spectrometric analysis of HCV wild type or HCV variants (C159S, A156S, R155K, D168A, A156T, and D168V) in the presence of test compound was performed. 100 pmols of HCV wild type (Bioenza Calif.) was incubated with test compound for 1 hr and 3 hrs at 10-fold excess of test compound to protein. 1 μL aliquots of the samples (total volume of 4.24 μL) were diluted with 10 μL of 0.1% TFA prior to micro C4 ZipTipping directly onto the MALDI target using Sinapinic acid as the desorption matrix (10 mg/mL in 0.1% TFA:Acetonitrile 50:50). Analyses were performed on a Shimadzu Biotech Axima TOF (Shimadzu Instruments) matrix-assisted-laser desorption/ionization Time-of-Flight (MALDI-TOF) mass spectrometer. The same procedure was carried out on 100 pmols of HCV C159S mutant of HCV protease for 3 hrs at 10-fold excess of test compound to protein.\nIn addition, mass spectrometric analysis of HCV NS3/4A genotypes 1a, 1b, 2a, and 3a in the presence of test compound was performed using the above protocol."}, "[3]": {"system": "HCV RNA replicon in cell line ET (luc-ubi-neo/ET), human Huh7 hepatoma", "assay": "Luciferase reporter replicon assay (Example 5, Method C)", "format": "cell-based", "settings": "Hepatitis C virus, Huh-7, 72 hr, EC90, read-out: Inhibition, Replicon, EC90 value", "protocol": "Method C: Luciferase Reporter Assay Protocol\nThe compounds were assayed to evaluate the antiviral activity and cytotoxicity of compounds using replicon-derived luciferase activity. This assay used the cell line ET (luc-ubi-neo/ET), which is a human Huh7 hepatoma cell line that contains an HCV RNA replicon with a stable luciferase (Luc) reporter and three cell culture-adaptive mutations. The ET cell line was grown in a 5% CO2 incubator at 37° C. in Dulbecco's modified essential media (DMEM), supplemented with 2 mM L-glutamine (“1%”), nonessential amino acids, 100 U of penicillin/mL, 100 μg of streptomycin/mL (“1%”), 10% fetal bovine serum and 400 μg/mL G418 (Geneticin; Invitrogen).\nAll cell culture reagents were obtained from Invitrogen (Carlsbad). Cells were trypsinized (1% trypsin:EDTA) and plated out at 5×10^3 cells/well in white 96-well assay plates (Costar) dedicated to cell number (cytotoxicity) or antiviral activity assessments. Test compounds were added at six 3-fold serial dilutions each and the assay was run in DMEM, 5% FBS, 1% pen-strep, 1% glutamine, 1% non essential amino acid. Human interferon alpha-2b (PBL Biolabs, New Brunswick, N.J.) was included in each run as a positive control compound. Cells were processed 72 hr post test compound addition when the cells were still subconfluent. Antiviral activity was measured by analyzing replicon-derived luciferase activity using the Steady-Glo Luciferase Assay System (Promega, Madison, Wis.) according to manufacturer's instruction. The number of cells in each well was determined by Cell Titer Blue Assay (Promega). Compound profile was derived by calculating applicable EC50 (effective concentration inhibiting virus replication by 50%), EC90 (effective concentration inhibiting virus replication by 90%), IC50 (concentration decreasing cell viability by 50%) and SI50 (selective index: […]) values."}, "[4]": {"biological_target": "T2, NS3 protease R155K self-cleavage in modified replicon system (Hepatitis C virus genotype 1b, UniProt Q9WMX2, E1202G/R1181K/T1280I)", "T2 construct": "expressed in transfected cells; host or cells: replicon cells carrying the R155K-mutated pFK-I389-luc-ubi-neo-NS3-3'ET replicon", "assay": "Inhibition of protease self cleavage in R155K modified replicon system (washout)", "format": "cell-based, HCV", "settings": "R155K modified replicon system (FIG. 6)", "protocol": "Constructs containing clinically relevant mutations were generated by performing site-directed mutagenesis on the pFK-1389-luc-ubi-neo-NS3-3′ET plasmid (ReBLikon Gmbh (Heidelberg, Germany)). using the QuickChange II Site-Directed Mutagenesis Kit (Stratagene, La Jolla, Calif.) according to manufacturer's directions and with the primers described in Table 2.\nHuh-7-Luc-Neo-ET cells were plated in Replicon Assay Medium (RPMI supplemented with 5% FBS, 1× non-essential amino acids and pen/strep) at a density of 1×10^5 cells/well in 12 well plates. Eight hours later the media was removed and replaced with 1 mL media containing test compound (5 wells per compound) and 0.02% DMSO and the cells were returned to the incubator overnight. […]\nas §1, with “activity. […]” for “activity.”"}, "[5]": {"biological_target": "T3, D168V mutant of the HCV NS3/4A 1b protease enzyme (Hepatitis C virus genotype 1b, UniProt P26663, D1194V)", "T3 construct": "10× stocks of NS3/4A protease enzyme from Bioenza; purchased Bioenza (Mountain View, Calif.)", "assay": "HCV protease FRET assay, D168V mutant", "format": "biochemical", "settings": "read-out: Inhibition, HCV D168V (IC50)", "protocol": "HCV Protease FRET Assay for Mutated NS3/4A 1b Enzymes\nThe protocol is a modified FRET-based assay (v—02) from In Vitro Resistance Studies of HCV Serine Protease Inhibitors, 2004, JBC, vol. 279, No. 17, pp 17508-17514. Inherent potency of compounds was assessed against A156S, A156T, D168A, and D168V mutants of the HCV NS3/4A 1b protease enzyme as follows:\nAssay buffer: 2% CHAPS, 50 mM Tris pH 7.5, 50% glycerol, 2 μM M-2235 (Bachem) substrate. In a 50 μl reaction, add 49 μl assay buffer, 1 μl (1 U) HCV serine protease (Bioenza). Incubate 20 minutes at room temperature. The plate was read at either 350/460 nm (excitation/emission) on a fluorescent micro-plate reader or monitored at one-minute intervals to achieve the kinetic curve.\n10× stocks of NS3/4A protease enzyme from Bioenza (Mountain View, Calif.) and 1.13×5-FAM/QXL™520 FRET peptide substrate from Anaspec (San Jose, Calif.) were prepared in 50 mM HEPES, pH 7.8, 100 mM NaCl, 5 mM DTT and 20% glycerol. 5 μL of each enzyme were pre-incubated in a Corning (#3573) 384-well, black, non-treated microtiter plate (Corning, N.Y.) for 30 min at 25° C. with a 0.5 μL volume of 50% DMSO and serially diluted compounds prepared in 50% DMSO. Protease reactions were started with the addition of 45 μL of the FRET substrate and monitored for 120 minutes at λex487/λem514 through Quad^4 monochromoters in a Synergy^4 plate reader from BioTek (Winooski, Vt.). […] Initial velocity (0 minutes to 30+ minutes) from each reaction was determined from the slope of a plot of relative fluorescence units vs time (minutes) and then plotted against inhibitor concentration to estimate IC50 from log[Inhibitor] vs Response, Variable Slope model in GraphPad Prism from GraphPad Software (San Diego, Calif.). […]\nThe following protocol was used to generate “apparent” IC50 (IC50—APP)) values as depicted in Table 3, below. […] Protease reactions were immediately started after enzyme addition with the addition of 45 μL of the FRET substrate and monitored for 60-90 minutes at λex485/λem520 in a Synergy^4 plate reader from BioTek (Winooski, Vt.). […]"}}}
{"smiles": "CCC[C@H](NC(=O)[C@@H]1[C@H]2CCC[C@H]2CN1C(=O)[C@@H](NC(=O)[C@@H](NC(=O)c1cnccn1)C1CCCCC1)C(C)(C)C)C(=O)C(=O)NC1CC1", "note": "[Compound 1, reference compound]", "values": [{"measurement": "return of NS3 self-cleavage activity after drug removal", "setting": "[1]; 16 hours incubation, in as little as 4 hours after drug removal", "value": "virtually complete return of activity"}]}
{"smiles": "C=C[C@@H]1C[C@]1(NC(=O)[C@@H]1C[C@@H](Oc2nccc3cc(OC)ccc23)CN1C(=O)[C@H](CCC(=O)C=C(C)C)NC(=O)OC(C)(C)C)C(=O)NS(=O)(=O)C1CC1", "note": "[Compound 5]", "values": [{"measurement": "covalent modification of HCV NS3/4A (mass spectrometry)", "setting": "[2]", "value": "measurable covalent modification"}]}
{"smiles": "C=C[C@@H]1C[C@]1(NC(=O)[C@@H]1C[C@@H]2CN1C(=O)[C@H](CCC(=O)C=C(C)C)NC(=O)OCCC/C=C/c1ccc3ccnc(c3c1)O2)C(=O)NS(=O)(=O)C1CC1", "note": "[Compound 6]", "values": [{"measurement": "EC90", "setting": "[3]", "value": "< 10", "unit": "nM"}]}
{"smiles": "C=CC(=O)N[C@H](C)C(=O)N1C[C@H](Oc2cc(-c3ccccc3)nc3cc(OC)ccc23)C[C@H]1C(=O)N[C@]1(C(=O)NS(=O)(=O)C2CC2)C[C@H]1C=C", "note": "[Compound 7]", "values": [{"measurement": "inhibition of NS3 self-cleavage after compound removal", "setting": "[1]; up to 24 hours after compound removal (FIG. 5)", "value": "virtually complete inhibition"}, {"measurement": "duration of inhibition of mutant protease activity after compound removal", "setting": "[4]", "value": "at least 24 hours"}, {"measurement": "IC50", "setting": "[5]", "value": "100 to 1000", "unit": "nM"}]}
